From patent EP1585727B1, “INDOLES USEFUL IN THE TREATMENT OF ANDROGEN-RECEPTOR RELATED DISEASES” (priority 2002, dated 2004)

The compounds below were run against T1, human androgen receptor (Homo sapiens, UniProt P10275) (assay: Androgen receptor transactivation assay, antiandrogenic activity: inhibition of transactivation in the presence of 1 nM DHT (CHO-AR-pMMTV-LUC cells; Table 4)). Conditions: in the presence of 1 nM DHT; intrinsic activity relative to reference antiandrogen Hydroxyflutamide (set at 100%); read-out: ant efficacy.
T1 construct: expressed in transfected cells; host or cells: Chinese hamster ovary (CHO) cells, cell line CHO-AR-pMMTV-LUC 1G12-A5-CA
T1 sequence (P10275 1-920): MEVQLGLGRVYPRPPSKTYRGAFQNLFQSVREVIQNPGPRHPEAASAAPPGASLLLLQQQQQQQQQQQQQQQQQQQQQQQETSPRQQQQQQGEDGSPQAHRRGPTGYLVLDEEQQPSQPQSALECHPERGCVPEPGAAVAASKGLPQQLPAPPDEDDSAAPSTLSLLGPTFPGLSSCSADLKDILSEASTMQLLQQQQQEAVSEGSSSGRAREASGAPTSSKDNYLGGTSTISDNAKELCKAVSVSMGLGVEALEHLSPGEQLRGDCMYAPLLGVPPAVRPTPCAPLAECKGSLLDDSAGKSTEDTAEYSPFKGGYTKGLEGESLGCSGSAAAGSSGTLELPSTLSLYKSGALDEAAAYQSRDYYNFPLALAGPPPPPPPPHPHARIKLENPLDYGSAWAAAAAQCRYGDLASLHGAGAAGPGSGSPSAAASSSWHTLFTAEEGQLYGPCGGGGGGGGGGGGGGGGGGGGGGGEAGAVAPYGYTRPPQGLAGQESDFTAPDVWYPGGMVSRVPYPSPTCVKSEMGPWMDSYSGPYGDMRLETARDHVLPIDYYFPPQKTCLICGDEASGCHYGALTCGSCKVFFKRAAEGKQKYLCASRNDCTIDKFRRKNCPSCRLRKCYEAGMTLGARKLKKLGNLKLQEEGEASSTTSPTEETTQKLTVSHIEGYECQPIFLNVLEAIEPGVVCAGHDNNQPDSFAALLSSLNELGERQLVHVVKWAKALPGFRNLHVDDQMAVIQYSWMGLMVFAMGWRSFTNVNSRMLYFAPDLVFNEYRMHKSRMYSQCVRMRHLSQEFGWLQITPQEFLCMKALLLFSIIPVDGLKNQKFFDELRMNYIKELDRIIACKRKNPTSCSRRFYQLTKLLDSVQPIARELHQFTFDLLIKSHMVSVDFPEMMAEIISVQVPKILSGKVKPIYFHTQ
Format: cell-based
Method: Compounds were tested for their Androgen Receptor activity in a transactivation assay and in a binding assay.
The (anti-)androgenic activity of test compounds (EC50 and intrinsic activity) was determined in an in vitro bioassay of Chinese hamster ovary (CHO) cells stably transfected with the human androgen receptor expression plasmid and a reporter plasmid in which the MMTV-promoter is linked to the luciferase reporter gene. The cell-line CHO-AR-pMMTV-LUC 1G12-AS-CA is described in Schoonen et al. (2000), Journal of Steroid Biochemistry and Molecular Biology 74(4):213-222. The antiandrogenic activity of a test compound was determined by the inhibition of the transactivation via the androgen receptor of the enzyme luciferase in the presence of 1 nM DHT (5 α-dihydrotestosterone, 17β-hydroxy-5α-androstan-3-one). Intrinsic activity of antiandrogenic activity was determined in the presence of the reference antiandrogen 2-Hydroxy-2-methyl-N-(4-nitro-3-trifluoromethyl-phenyl)-propionamide (Hydroxyflutamide), and set at 100%. For androgenic activity, maximal intrinsic activity in the presence of 100 nM DHT was set at 100%. Table 4 Androgen receptor activity
With `COc1ccc2c(Sc3ccccc3[N+](=O)[O-])cn(Cc3cccc(OC(F)(F)F)c3)c2c1` [Compound 77] the Emax was less than 20%. `CNC(=O)c1ccc2c(Sc3ccccc3[N+](=O)[O-])cn(Cc3cc(F)cc(F)c3)c2c1` [Compound 47, 1-(3,5-Difluoro-benzyl)-3-(2-nitro-phenylsulfanyl)-1H-indole-6-carboxylic acid methylamide] was tested, and the Emax was less than 20%. Work on `COc1ccc2c(Sc3ccccc3[N+](=O)[O-])cn(Cc3ccccc3Cl)c2c1` [Compound 3] yielded an Emax of less than 20%. `COc1ccc2c(Sc3cccc[n+]3[O-])cn(Cc3cc(F)cc(F)c3)c2c1` [Compound 66] was tested, and the Emax was 20 to 50%. Compound `COc1ccc2c(c1)c(Sc1ccccc1[N+](=O)[O-])cn2Cc1ccccc1` [Compound 91] has an Emax greater than 80%. In the case of `COc1ccc2c(Sc3ccccc3[N+](=O)[O-])cn(Cc3cccc(Cl)c3)c2c1` [Compound 67], the Emax is reported as less than 20%. For `COc1ccc2c(S(=O)(=O)c3ccccc3[N+](=O)[O-])cn(Cc3cc(F)cc(F)c3)c2c1` [Compound 62, 1-(3,5-Difluoro-benzyl)-6-methoxy-3-(2-nitro-benzenesulfonyl)-1H-indole], the Emax was less than 20%. For `COC(=O)c1ccccc1Sc1cn(Cc2cc(F)cc(F)c2)c2cc(OC)ccc12` [Compound 19, 2-[1-(3,5-Difluoro-benzyl)-6-methoxy-1H-indol-3-ylsulfanyl]-benzoic acid methyl ester], the Emax was less than 20%. With `COc1ccc2c(Sc3ccccc3[N+](=O)[O-])cn(Cc3ccc(Cl)c(C(F)(F)F)c3)c2c1` [Compound 76] the Emax was less than 20%. `COc1ccc2c(Sc3ccccc3C#N)cn(Cc3cc(F)cc(F)c3)c2c1` [Compound 20, 2-[1-(3,5-Difluoro-benzyl)-6-methoxy-1H-indol-3-ylsulfanyl]-benzonitrile] gave an Emax of less than 20%. In the case of `Nc1ccc2c(Sc3ccccc3[N+](=O)[O-])cn(Cc3cc(F)cc(F)c3)c2c1` [Compound 57, 1-(3,5-Difluoro-benzyl)-3-(2-nitro-phenylsulfanyl)-1H-indol-6-ylamine], the Emax is reported as less than 20%. `O=C(NCc1ccco1)c1ccc2c(Sc3ccccc3[N+](=O)[O-])cn(Cc3cc(F)cc(F)c3)c2c1` [Compound 34] gave an Emax of less than 20%. In the case of `COc1cccc(Cn2cc(Sc3ccccc3[N+](=O)[O-])c3ccc(OC)cc32)c1` [Compound 72], the Emax is reported as less than 20%. For `O=C(NCC1CC1)c1ccc2c(Sc3ccccc3[N+](=O)[O-])cn(Cc3cc(F)cc(F)c3)c2c1` [Compound 41], the Emax was less than 20%. In the case of `COc1ccc2c(Sc3ccccc3[N+](=O)[O-])cn(Cc3cc(Cl)cc(Cl)c3)c2c1` [Compound 15], the Emax is reported as less than 20%. `CN(C)CCNC(=O)c1ccc2c(Sc3ccccc3[N+](=O)[O-])cn(Cc3cc(F)cc(F)c3)c2c1` [Compound 36] was tested, and the Emax was less than 20%. `O=[N+]([O-])c1ccccc1Sc1cn(Cc2ccccc2)c2ccccc12` [Compound 90] showed an Emax of less than 20%. `COc1ccc2c(Sc3ccccn3)cn(Cc3cc(F)cc(F)c3)c2c1` [Compound 65, 1-(3,5-Difluoro-benzyl)-6-methoxy-3-(pyridin-2-ylsulfanyl)-1H-indole] was tested, and the Emax was less than 20%. `COc1ccc(Cn2cc(Sc3ccccc3[N+](=O)[O-])c3ccc(OC)cc32)cc1` [Compound 84] was tested, and the Emax was greater than 80%. `COc1ccc2c(Sc3ccccc3[N+](=O)[O-])cn(Cc3ccccc3C#N)c2c1` [Compound 4] was tested, and the Emax was 20 to 50%. Compound `CC(C)CNC(=O)c1ccc2c(Sc3ccccc3[N+](=O)[O-])cn(Cc3cc(F)cc(F)c3)c2c1` [Compound 42] has an Emax of less than 20%. `COc1ccc2c(Sc3ccccc3[N+](=O)[O-])cn(Cc3ccc(Cl)cc3)c2c1` [Compound 81] gave an Emax of 50 to 80%. With `O=C(c1ccc2c(Sc3ccccc3[N+](=O)[O-])cn(Cc3cc(F)cc(F)c3)c2c1)N1CCCC1` [Compound 27] the Emax was less than 20%. With `O=[N+]([O-])c1ccccc1Sc1cn(Cc2cc(F)cc(F)c2)c2cc(F)ccc12` [Compound 50] the Emax was less than 20%. Compound `CC(=O)Nc1ccc2c(Sc3ccccc3[N+](=O)[O-])cn(Cc3cc(F)cc(F)c3)c2c1` [Compound 58, N-[1-(3,5-Difluoro-benzyl)-3-(2-nitro-phenylsulfanyl)-1H-indol-6-yl]-acetamide] has an Emax of less than 20%. Compound `COc1ccc2c([S+]([O-])c3ccccc3[N+](=O)[O-])cn(Cc3cc(F)cc(F)c3)c2c1` (stereo not drawn) [Compound 64, 1-(3,5-Difluoro-benzyl)-6-methoxy-3-(2-nitro-benzenesulfinyl)-1H-indole] has an Emax of 50 to 80%. In the case of `O=[N+]([O-])c1ccccc1Sc1cn(Cc2cc(F)cc(F)c2)c2cc(Br)ccc12` [Compound 22], the Emax is reported as less than 20%. Work on `COC(=O)CNC(=O)c1ccc2c(Sc3ccccc3[N+](=O)[O-])cn(Cc3cc(F)cc(F)c3)c2c1` [Compound 39] yielded an Emax of less than 20%. In the case of `COc1ccc2c(Sc3ccccc3[N+](=O)[O-])cn(Cc3cc(F)cc(C(F)(F)F)c3)c2c1` [Compound 69], the Emax is reported as less than 20%. Work on `COc1ccc2c(Sc3ccccc3[N+](=O)[O-])cn(Cc3cnc(Cl)s3)c2c1` [Compound 87] yielded an Emax of less than 20%. `COc1ccc2c(Sc3ccccc3[N+](=O)[O-])cn(Cc3ccc(Cl)c(Cl)c3)c2c1` [Compound 14] gave an Emax of less than 20%. For `CN(C)C(=O)CNC(=O)c1ccc2c(Sc3ccccc3[N+](=O)[O-])cn(Cc3cc(F)cc(F)c3)c2c1` [Compound 40], the Emax was less than 20%. Compound `COc1ccc2c(Sc3ccccc3[N+](=O)[O-])cn(Cc3csc(C)n3)c2c1` [Compound 79] has an Emax of less than 20%.

Same assay, conditions: read-out: ant efficacy, in the presence of 1 nM DHT; intrinsic activity relative to reference antiandrogen Hydroxyflutamide (set at 100%)
`COc1ccc2c(Sc3ccccc3[N+](=O)[O-])cn(Cc3ccccn3)c2c1` [Compound 9, 6-Methoxy-3-(2-nitro-phenylsulfanyl)-1-pyridin-2-ylmethyl-1H-indole] showed an Emax of 20 to 50%. `CCN(CC)C(=O)c1ccc2c(Sc3ccccc3[N+](=O)[O-])cn(Cc3cc(F)cc(F)c3)c2c1` [Compound 32] showed an Emax of 20 to 50%. Compound `COc1ccc2c(Sc3ccccc3[N+](=O)[O-])cn(Cc3cccc([N+](=O)[O-])c3C)c2c1` [Compound 6] has an Emax of less than 20%. In the case of `O=C(NCc1ccccc1)c1ccc2c(Sc3ccccc3[N+](=O)[O-])cn(Cc3cc(F)cc(F)c3)c2c1` [Compound 43], the Emax is reported as 20 to 50%. Compound `COc1ccc2c(Sc3ccccc3[N+](=O)[O-])cn(CC3CCCCC3)c2c1` [Compound 89] has an Emax of 20 to 50%. For `COc1ccc2c(Sc3ccccc3CO)cn(Cc3cc(F)cc(F)c3)c2c1` [Compound 16, {2-[1-(3,5-Difluoro-benzyl)-6-methoxy-1H-indol-3-ylsulfanyl]-phenyl}-methanol], the Emax was 20 to 50%.

These compounds were tested against T1, human androgen receptor (assay: Androgen receptor transactivation assay, androgenic activity in the presence of 0.1 µmol/l onapristone (CHO-AR-pMMTV-LUC cells; Table 5)). Conditions: maximal intrinsic activity in the presence of 100 nM DHT set at 1.00.
Format: cell-based
Method: The androgenic activity (EC50, potency, and efficacy) of the compounds in Table 5 was determined in an in vitro bioassay of Chinese hamster ovary (CHO) cells stably transfected with the human androgen receptor expression plasmid and a reporter plasmid in which the MMTV promotor is linked to the luciferase reporter gene. The cell line CHO-AR-pMMTV-LUC 1G12-A5-CA is described in Schoonen et al. (J. Steroid Biochem. Molec. Biol. […]; 74: 213-222). The androgen receptor activity of compounds was determined in the presence of 0.1 µmol/l onapristone. The maximal efficacy in the presence of 100 nmol/l DHT was set as 100%. The potencies are expressed as percentage of DHT activity. Table 5 Androgen receptor activity
`CC(=O)Nc1ccc2c(Sc3ccccc3[N+](=O)[O-])cn(Cc3ccccn3)c2c1` [Compound 101, N-[3-(2-Nitro-phenylsulfanyl)-1-pyridin-2-ylmethyl-1H-indol-6-yl]-acetamide] was tested, and the ago efficacy was “+ (between 0.50 and 0.80)”. `CCNC(=O)c1ccc2c(Sc3ccccc3[N+](=O)[O-])cn(Cc3cccnc3)c2c1` [Compound 113, 3-(2-Nitro-phenylsulfanyl)-1-pyridin-3-ylmethyl-1H-indole-6-carboxylic acid ethylamide] was tested, and the ago efficacy was “+ (between 0.50 and 0.80)”. For `COc1ccc2c(Sc3ccccc3[N+](=O)[O-])cn(Cc3cncnc3)c2c1` [Compound 115, 6-Methoxy-3-(2-nitro-phenylsulfanyl)-1-pyrimidin-5-ylmethyl-1H-indole], the ago efficacy was “+ (between 0.50 and 0.80)”.

Same assay, conditions: potency expressed as percentage of DHT activity
For `CC(=O)Nc1ccc2c(Sc3ccccc3[N+](=O)[O-])cn(Cc3ccccn3)c2c1` [Compound 101, N-[3-(2-Nitro-phenylsulfanyl)-1-pyridin-2-ylmethyl-1H-indol-6-yl]-acetamide], the ago potency was “+ (between 1% and 5%)”. `CCNC(=O)c1ccc2c(Sc3ccccc3[N+](=O)[O-])cn(Cc3cccnc3)c2c1` [Compound 113, 3-(2-Nitro-phenylsulfanyl)-1-pyridin-3-ylmethyl-1H-indole-6-carboxylic acid ethylamide] was tested, and the ago potency was “+ (between 1% and 5%)”. With `COc1ccc2c(Sc3ccccc3[N+](=O)[O-])cn(Cc3cncnc3)c2c1` [Compound 115, 6-Methoxy-3-(2-nitro-phenylsulfanyl)-1-pyrimidin-5-ylmethyl-1H-indole] the ago potency was “++ (>5%)”.
